Measured values taken from PubChem BioAssay (NCI).
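Values below derive from 48-hour exposures of cells grown in 96-well plates, with endpoints linearly interpolated between the two concentrations bracketing the appropriate inhibition level. GI50 is the concentration that inhibits growth by half. At the TGI there is no net growth.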

Assays:
Experiment in all cases: inhibition of tumour cell growth, NCI panel, 48 h
HOP-62 NSCLC = tested on: HOP-62 NSCLC
MDA-MB-231 breast = tested on: MDA-MB-231 breast
MCF7 breast = tested on: MCF7 breast
A498 renal = tested on: A498 renal
K-562 leukemia = tested on: K-562 leukemia
HS 578T breast = tested on: HS 578T breast
HCT-15 colon = tested on: HCT-15 colon
SR leukemia = tested on: SR leukemia
SK-MEL-5 melanoma = tested on: SK-MEL-5 melanoma
OVCAR-5 ovarian = tested on: OVCAR-5 ovarian
MDA-MB-435 = tested on: MDA-MB-435
KM12 colon = tested on: KM12 colon
EKVX NSCLC = tested on: EKVX NSCLC
UACC-257 melanoma = tested on: UACC-257 melanoma
U251 CNS = tested on: U251 CNS
MALME-3M melanoma = tested on: MALME-3M melanoma
HL-60(TB) leukemia = tested on: HL-60(TB) leukemia
HCT-116 colon = tested on: HCT-116 colon
SNB-19 CNS = tested on: SNB-19 CNS
NCI-H226 lung = tested on: NCI-H226 lung
786-0 renal = tested on: 786-0 renal
MDA-MB-468 breast = tested on: MDA-MB-468 breast
HT29 colon = tested on: HT29 colon
T-47D breast = tested on: T-47D breast
DU-145 prostate = tested on: DU-145 prostate
OVCAR-4 ovarian = tested on: OVCAR-4 ovarian
UO-31 renal = tested on: UO-31 renal
CCRF-CEM leukemia = tested on: CCRF-CEM leukemia
COLO 205 colon = tested on: COLO 205 colon

For `COc1ccc(C(=O)/C=C/c2cccc3ccccc23)cc1S(N)(=O)=O`, the GI50 (HOP-62 NSCLC) was 2.03 µM, the TGI (HOP-62 NSCLC) was 5.66 µM and the GI50 (MDA-MB-231 breast) was 2.38 µM. It also gave a TGI (MDA-MB-231 breast) of 6.49 µM, a GI50 (MCF7 breast) of 2.14 µM and a TGI (MCF7 breast) of 8.58 µM. For the same compound, the GI50 (A498 renal) was 13.2 µM, the TGI (A498 renal) was 26.2 µM and the GI50 (K-562 leukemia) was 1.69 µM. For the same compound, the TGI (K-562 leukemia) was 7.54 µM, the GI50 (HS 578T breast) was 5.21 µM and the TGI (HS 578T breast) was 26.8 µM. For the same compound, the GI50 (HCT-15 colon) was 1.23 µM, the TGI (HCT-15 colon) was 3.2 µM and the GI50 (SR leukemia) was 0.749 µM. The TGI (SR leukemia) was 5.13 µM, the GI50 (SK-MEL-5 melanoma) was 2.53 µM and the TGI (SK-MEL-5 melanoma) was 7.71 µM. For the same compound, the GI50 (OVCAR-5 ovarian) was 1.84 µM, the TGI (OVCAR-5 ovarian) was 4.4 µM and the GI50 (MDA-MB-435) was 2.23 µM. The TGI (MDA-MB-435) was 7.5 µM, the GI50 (KM12 colon) was 1.46 µM and the TGI (KM12 colon) was 3.57 µM. The GI50 (EKVX NSCLC) was 3.55 µM, the TGI (EKVX NSCLC) was 13.5 µM and the GI50 (UACC-257 melanoma) was 3.05 µM. The TGI (UACC-257 melanoma) was 12.3 µM, the GI50 (U251 CNS) was 1.5 µM and the TGI (U251 CNS) was 3.02 µM. The GI50 (MALME-3M melanoma) was 1.83 µM, the TGI (MALME-3M melanoma) was 4.2 µM and the GI50 (HL-60(TB) leukemia) was 1.36 µM. The TGI (HL-60(TB) leukemia) was 5.81 µM, the GI50 (HCT-116 colon) was 1.33 µM and the TGI (HCT-116 colon) was 2.93 µM. It also gave a GI50 (SNB-19 CNS) of 3.45 µM, a TGI (SNB-19 CNS) of 13.7 µM and a GI50 (NCI-H226 lung) of 3.1 µM. It also gave a TGI (NCI-H226 lung) of 13.2 µM, a GI50 (786-0 renal) of 1.86 µM and a TGI (786-0 renal) of 3.87 µM. The GI50 (MDA-MB-468 breast) was 1.53 µM, the TGI (MDA-MB-468 breast) was 3.11 µM and the GI50 (HT29 colon) was 1.74 µM. For the same compound, the TGI (HT29 colon) was 3.92 µM, the GI50 (T-47D breast) was 3.41 µM and the TGI (T-47D breast) was 14.1 µM. The GI50 (DU-145 prostate) was 2.85 µM, the TGI (DU-145 prostate) was 10.8 µM and the GI50 (OVCAR-4 ovarian) was 2.87 µM. It also gave a TGI (OVCAR-4 ovarian) of 11.3 µM, a GI50 (UO-31 renal) of 1.48 µM and a TGI (UO-31 renal) of 3.19 µM. The GI50 (CCRF-CEM leukemia) was 2.54 µM, the TGI (CCRF-CEM leukemia) was 6.95 µM and the GI50 (COLO 205 colon) was 1.67 µM. It also gave a TGI (COLO 205 colon) of 3.24 µM.
